Several values for one entry are separate records, joined by “and”; a condition that tells them apart may be missing. Identical values can stand only once. Values belong to the compound of their own block, whether it stands above or below them.
Test system: 349418-098-R-PDC complex spheroid growth
Assay: Anticancer human tumor 349418-098-R-PDC patient-derived lung adenocarcinoma cell line growth inhibition [AhR]
Settings: for viability, T/C: stronger effect = lower value
Text: Multicellular complex tumor spheroid response to aryl hydrocarbon receptor antagonists in combination with a variety of drugs and investigational agents in selected tumor cell lines
The current study was undertaken to assess response to aryl hydrocarbon receptor antagonists in combination with standard-of-care drugs and investigational agents in solid tumor complex spheroid models. Complex spheroids include a stromal component modeled by human endothelial cells (HUVEC) and fibroblasts modeled by human mesenchymal stem cells (MSCs). The concentration ranges selected for each drug and investigational agent were based upon clinically achievable concentrations if the clinical Cmax of the agent was known.
Compounds. The drugs and investigational agents: BAY 2416964 (NSC825713), GNF351 (NSC835774), CH-223191 (NSC835775), CPI-455 (NSC825282), aza-TdCyd (NSC777586), decitabine (NSC127716), belinostat (NSC758774), entinostat (NSC756642), pevonedistat (NSC761192), tazemetostat (NSC777109), talazoparib (NSC765396), olaparib (NSC753686), selinexor (NSC780203), nedisertib (M3814, NSC802822), bortezomib (NSC756655), venetoclax (NSC766270), doxorubicin (NSC123127), elimusertib (BAY189344, NSC800525), ceralasertib (AZD6738, NSC777638), TAK-243 (NSC785004), alisertib (NSC759677), etoposide (NSC141540), topotecan (NSC609699), eribulin (NSC707389), gemcitabine (NSC613327), carboplatin (NSC241240), cisplatin (NSC119875), and SN-38 (NSC673596) were obtained from the National Cancer Institute (NCI) Developmental Therapeutics Program Chemical Repository (32). The FDA-approved anticancer drug set is available from the Developmental Therapeutics Program at https://dtp.cancer.gov/organization/dscb/obtaining/available plates.htm. […] The stock solutions were prepared in dimethyl sulfoxide (DMSO, Sigma-Aldrich, St. Louis, MO, cat. D2650), except for the platinum compounds which were prepared in saline (Quality Biological, Gaithersburg, MD, cat. 114-055-101), at 800-fold the tested concentration and stored at -70 degrees C prior to their use. All drugs and investigational agents were tested over a range starting from a high concentration at or near the clinical Cmax and decreasing in half-log increments. If the clinical Cmax for an agent had not been determined, the highest concentration tested was 10 microM (Table 1).
Cell Culture. All cells were maintained in an incubator at 37 degrees C and 5% CO2 with 95% humidity. The PDC lines were cultured according to standard operating procedures established by the NCI PDMR (https://pdmr.cancer.gov). Briefly, all PDCs were thawed and cultured in Matrigel-coated flasks prepared with a working solution of 1X Ham's F-12 nutrient mix, without supplementation (Invitrogen, Waltham, MA, cat. 11765054), 100 U/mL penicillin-streptomycin (Invitrogen, cat. 15140122), and 2.5% Matrigel (Corning Inc., Corning, NY, cat. 354248) for the first three passages. All PDCs were cultured in complete DMEM/F-12 media containing advanced DMEM/F-12 (Invitrogen, cat. 12634028), 4.9% defined fetal bovine serum, heat inactivated (HyClone Laboratories Inc., Logan, UT, cat. SH30070.03HI), 389 ng/mL hydrocortisone (Sigma-Aldrich, cat. H4001), 9.7 ng/mL human EGF recombinant protein (Invitrogen, cat. PHG0313), 23.4 microg/mL adenine (Sigma-Aldrich, cat. A2786), 97.3 U/mL penicillin-streptomycin (Invitrogen, cat. 15140122), 1.9 mM L-glutamine (Invitrogen, cat. 25030081), and 9.7 microM Y-27632 dihydrochloride (Tocris Bioscience, Bristol, United Kingdom, cat. 1254). The PDCs were cultured in complete DMEM/F12 media without 10 microM Y-27632 dihydrochloride for at least two passages prior to the screen. The established cell lines NCI-H1341 and […] were cultured in DMEM/F-12, HEPES (Invitrogen, cat. 11330032), 5% defined fetal bovine serum (HyClone Laboratories Inc., cat. SH30070.03), ITS premix universal culture supplement [insulin (5 microg/mL), transferrin (5 microg/mL), and selenious acid (5 ng/mL)] […]

[1] = curve of first compound, second compound 0.1 µM
[2] = curve of first compound, second compound 0.316 µM
[3] = curve of first compound, second compound 1 µM
[4] = curve of first compound, second compound 3.16 µM
[5] = curve of first compound, second compound 10 µM
[6] = second compound 0.1 µM, first compound 0.0316 µM
[7] = second compound 0.1 µM, first compound 0.1 µM
[8] = second compound 0.1 µM, first compound 0.316 µM
[9] = second compound 0.1 µM, first compound 1 µM
[10] = second compound 0.1 µM, first compound 3.16 µM
[11] = second compound 0.1 µM, first compound 10 µM
[12] = second compound 0.316 µM, first compound 0.0316 µM
[13] = second compound 0.316 µM, first compound 0.1 µM
[14] = second compound 0.316 µM, first compound 0.316 µM
[15] = second compound 0.316 µM, first compound 1 µM
[16] = second compound 0.316 µM, first compound 3.16 µM
[17] = second compound 0.316 µM, first compound 10 µM
[18] = second compound 1 µM, first compound 0.0316 µM
[19] = second compound 1 µM, first compound 0.1 µM
[20] = second compound 1 µM, first compound 0.316 µM
[21] = second compound 1 µM, first compound 1 µM
[22] = second compound 1 µM, first compound 3.16 µM
[23] = second compound 1 µM, first compound 10 µM
[24] = second compound 3.16 µM, first compound 0.0316 µM
[25] = second compound 3.16 µM, first compound 0.1 µM
[26] = second compound 3.16 µM, first compound 0.316 µM
[27] = second compound 3.16 µM, first compound 1 µM
[28] = second compound 3.16 µM, first compound 3.16 µM
[29] = second compound 3.16 µM, first compound 10 µM
[30] = second compound 10 µM, first compound 0.0316 µM
[31] = second compound 10 µM, first compound 0.1 µM
[32] = second compound 10 µM, first compound 0.316 µM
[33] = second compound 10 µM, first compound 1 µM
[34] = second compound 10 µM, first compound 3.16 µM
[35] = second compound 10 µM, first compound 10 µM
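Further: spheroids exposed to agents for seven days before luminescence viability read.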
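Wherever viability, T/C is given: spheroids also contain HUVEC endothelial cells and human MSC stroma.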

- IC50 [1]: > 10 µM
- IC50 [2]: 5.21 µM
- IC50 [3]: 7.43 µM
- IC50 [4]: 3.54 µM
- IC50 [5]: 0.482 µM
Compound: O=C(c1cc(Cc2n[nH]c(=O)c3ccccc23)ccc1F)N1CCN(C(=O)C2CC2)CC1 + CC(CO)NC(=O)c1cc(-c2ccc(Cl)cc2)nn(-c2cnn(C)c2)c1=O
- viability, T/C [6]: 84.2%
- viability, T/C [7]: 81.6%
- viability, T/C [8]: 82.8%
- viability, T/C [9]: 101%
- viability, T/C [10]: 64.2%
- viability, T/C [11]: 60.1%
- viability, T/C [12]: 101%
- viability, T/C [13]: 101%
- viability, T/C [14]: 89.7%
- viability, T/C [15]: 64.4%
- viability, T/C [16]: 63.6%
- viability, T/C [17]: 39.2%
- viability, T/C [18]: 95.5%
- viability, T/C [19]: 74.4%
- viability, T/C [20]: 73.7%
- viability, T/C [21]: 66.9%
- viability, T/C [22]: 59.8%
- viability, T/C [23]: 44.8%
- viability, T/C [24]: 85.4%
- viability, T/C [25]: 87.9%
- viability, T/C [26]: 77.9%
- viability, T/C [27]: 61.2%
- viability, T/C [28]: 55.2%
- viability, T/C [29]: 33.7%
- viability, T/C [30]: 42.1%
- viability, T/C [31]: 60.6%
- viability, T/C [32]: 58.6%
- viability, T/C [33]: 43.5%
- viability, T/C [34]: 38.3%
- viability, T/C [35]: 33.7%

- IC50 [1]: > 3 µM
- IC50 [2]: > 3 µM
- IC50 [3]: > 3 µM
- IC50 [4]: < 0.00949 µM
- IC50 [5]: < 0.00949 µM
Compound: CCN(c1cc(-c2ccc(CN3CCOCC3)cc2)cc(C(=O)NCc2c(C)cc(C)[nH]c2=O)c1C)C1CCOCC1 + Cc1cncc(-c2nc(NCCc3c[nH]c4ccccc34)c3ncn(C(C)C)c3n2)c1
- viability, T/C (second compound 0.1 µM, first compound 0.00949 µM): 98.9%
- viability, T/C (second compound 0.1 µM, first compound 0.03 µM): 85%
- viability, T/C (second compound 0.1 µM, first compound 0.0949 µM): 98%
- viability, T/C (second compound 0.1 µM, first compound 0.3 µM): 96.5%
- viability, T/C (second compound 0.1 µM, first compound 0.949 µM): 97.7%
- viability, T/C (second compound 0.1 µM, first compound 3 µM): 80.5%
- viability, T/C (second compound 0.316 µM, first compound 0.00949 µM): 105%
- viability, T/C (second compound 0.316 µM, first compound 0.03 µM): 94.2%
- viability, T/C (second compound 0.316 µM, first compound 0.0949 µM): 103%
- viability, T/C (second compound 0.316 µM, first compound 0.3 µM): 103%
- viability, T/C (second compound 0.316 µM, first compound 0.949 µM): 105%
- viability, T/C (second compound 0.316 µM, first compound 3 µM): 76.5%
- viability, T/C (second compound 1 µM, first compound 0.00949 µM): 82.8%
- viability, T/C (second compound 1 µM, first compound 0.03 µM): 94%
- viability, T/C (second compound 1 µM, first compound 0.0949 µM): 81%
- viability, T/C (second compound 1 µM, first compound 0.3 µM): 74.5%
- viability, T/C (second compound 1 µM, first compound 0.949 µM): 77.2%
- viability, T/C (second compound 1 µM, first compound 3 µM): 71.9%
- viability, T/C (second compound 3.16 µM, first compound 0.00949 µM): 19.9%
- viability, T/C (second compound 3.16 µM, first compound 0.03 µM): 17.9%
- viability, T/C (second compound 3.16 µM, first compound 0.0949 µM): 19.6%
- viability, T/C (second compound 3.16 µM, first compound 0.3 µM): 15.1%
- viability, T/C (second compound 3.16 µM, first compound 0.949 µM): 14.2%
- viability, T/C (second compound 3.16 µM, first compound 3 µM): 12.3%
- viability, T/C (second compound 10 µM, first compound 0.00949 µM): 3.07%
- viability, T/C (second compound 10 µM, first compound 0.03 µM): 3.18%
- viability, T/C (second compound 10 µM, first compound 0.0949 µM): 2.66%
- viability, T/C (second compound 10 µM, first compound 0.3 µM): 2.82%
- viability, T/C (second compound 10 µM, first compound 0.949 µM): 2.27%
- viability, T/C (second compound 10 µM, first compound 3 µM): 1.62%

- IC50 (curve of compound): 0.00158 µM and 0.00339 µM and < 0.000949 µM
Compound: CCc1c2c(nc3ccc(O)cc13)-c1cc3c(c(=O)n1C2)COC(=O)[C@]3(O)CC
- viability, T/C (compound 0.000949 µM): 55.3% and 67.2% and 40.5%
- viability, T/C (compound 0.003 µM): 43.4% and 54.1% and 42.9%
- viability, T/C (compound 0.00949 µM): 20.6% and 16% and 22.3%
- viability, T/C (compound 0.03 µM): 7.29% and 12% and 8.26%
- viability, T/C (compound 0.0949 µM): 3.4% and 8.26% and 6.22%
- viability, T/C (compound 0.3 µM): 1.91% and 6.96% and 4.74%

- IC50 [1]: 5.35 µM
- IC50 [2]: 4.16 µM
- IC50 [3]: 4.26 µM
- IC50 [4]: < 0.0316 µM
- IC50 [5]: < 0.0316 µM
Compound: CC1COCCN1c1cc(C2(S(C)(=N)=O)CC2)nc(-c2ccnc3[nH]ccc23)n1 (configuration not stated) + Cc1cncc(-c2nc(NCCc3c[nH]c4ccccc34)c3ncn(C(C)C)c3n2)c1
- viability, T/C [6]: 90.9%
- viability, T/C [7]: 97%
- viability, T/C [8]: 93.9%
- viability, T/C [9]: 99.3%
- viability, T/C [10]: 75.3%
- viability, T/C [11]: 20%
- viability, T/C [12]: 90.1%
- viability, T/C [13]: 94.2%
- viability, T/C [14]: 95.5%
- viability, T/C [15]: 89.9%
- viability, T/C [16]: 61.4%
- viability, T/C [17]: 13.6%
- viability, T/C [18]: 78.7%
- viability, T/C [19]: 72.9%
- viability, T/C [20]: 85.2%
- viability, T/C [21]: 73.4%
- viability, T/C [22]: 61.9%
- viability, T/C [23]: 15.7%
- viability, T/C [24]: 15.7%
- viability, T/C [25]: 15.9%
- viability, T/C [26]: 12.6%
- viability, T/C [27]: 12.1%
- viability, T/C [28]: 8.67%
- viability, T/C [29]: 7.34%
- viability, T/C [30]: 2.06%
- viability, T/C [31]: 2.37%
- viability, T/C [32]: 2.46%
- viability, T/C [33]: 2.04%
- viability, T/C [34]: 2.07%
- viability, T/C [35]: 2.16%

Reference: PubChem BioAssay AID1918996 (Molecular Pharmacology Branch, DTP, NCI, 2023)
